Legend:
aortic rings = test: Vasodilation of phenylephrine-contracted rat thoracic aortic rings (organ chamber, isometric tension); parameters: species or system Sprague-Dawley(SD) rats; settings: for effect to the blood vessel without endothelium / relaxation to the blood vessel with endothelium: aortic rings contracted by 10^-6M phenylephrine; for effect to the blood vessel without endothelium: endothelium removed mechanically; for relaxation to the blood vessel with endothelium: substance alone; for relaxation to the blood vessel with endothelium / vasodilation in the presence of methylene blue(MB) / vasodilation in the presence of nitro-L-arginine(NLA): with endothelium; for vasodilation in the presence of methylene blue(MB): together with 10^-6M methylene blue(MB), an inhibitor of soluble guanylate cyclase; for vasodilation in the presence of nitro-L-arginine(NLA): together with 10^-6M nitro-L-arginine(NLA), an inhibitor of nitric oxide synthase
Protocol: Sprague-Dawley(SD) rats weighing 300-400g were sacrificed and their thoracic aortae were removed quickly, and then placed in a Krebs-Ringer-sodium bicarbonate solution (control solution, NaCl 118.3; KCl 4.7; MgSO4 1.2; KH2PO4 1.2; CaCl2 2.5; NaHCO3 25.0; CaEDTA 0.016 and glucose 11.1mM). Blood within the aortae, adipose and connective tissues surrounding the blood vessel were removed and then the clean aortae were cut down to prepare the aortic rings having 2-3mm length. The aortic rings were suspended vertically in an organ chamber filled with 25ml of control solution (pH 7.4). In some aortic rings, the endothelium was removed mechanically by rolling the rings 7 to 8 times on a tissue towel with pincette. The bottom of aortic ring was fixed to the organ chamber and the top thereof was connected to a transducer coupler through stirrups for recording of isometric tension.
To the aortic rings showing a stable contraction induced by addition of 10^-6M phenylephrine to the organ chamber was added ginsenoside Rg3 or Rg5-dimethylsulfoxide solution alone or together with 10^-6M methylene blue(MB) or 10^-6M nitro-L-arginine(NLA) in order to observe the vasodilation thereof. The degree of contraction by 10^-6M phenylephrine was set to 100% and the degree of relaxation caused by ginsenoside Rg3 or Rg5 was represented as percent(%) with respect thereto.
Vasodilation of the processed panaxadiol saponin fraction obtained in Example 7 as mentioned above was determined according to the same experimental procedure as Test Example 1.

[1] = test system: Human umbilical vein endothelium cells(HUVEC); test: Cytotoxicity to HUVEC cells (MTT, 48 hours); type: cell-based; settings: for cytotoxicity: compared with solvent alone (Rg3: dimethylsulfoxide; Rg5: distilled water)
Protocol: Human umbilical vein endothelium cells(HUVEC) cultured in M199 medium were suspended in physiological saline to a concentration of 20000 cells/180µl. The cell suspension was introduced into each well of 96-well plate in an amount of 180µl, and then 20µl of dimethylsulfoxide as a solvent or the same volume of Rg3 dissolved in dimethylsulfoxide was added thereto. The plate was incubated for 48 hours in a cell-incubator of 37°C while keeping 5% CO2. Then, 50µl of MTT(3-(4,5-dimethyl-thiazol-2'-yl)-2,5-diphenyltetrazolium bromide) dissolved in phosphate buffered solution in a concentration of 2mg/ml was added thereto and incubated again for 4 hours under the same condition as mentioned above. Thereafter, the supernatant was removed and 200µl of dimethylsulfoxide was added to measure the absorbance at 540nm. The absorbance measured was converted into cell number to determine IC50 of dimethylsulfoxide solvent and Rg3 which is the concentration to inhibit the cell growth by 50% and can be used as an index of cytotoxicity.
Human umbilical vein endothelium cells(HUVEC) cultured in M199 medium were suspended in physiological saline to a concentration of 20000 cells/180µl. The cell suspension was introduced into each well of 96-well plate in an amount of 180µl, and then 20µl of distilled water as a solvent or the same volume of Rg5 dissolved in distilled water was added thereto. The plate was incubated for 48 hours in a cell-incubator of 37°C while keeping 5% CO2. Then, 50µl of MTT(3-(4,5-dimethyl-thiazol-2'-yl)-2,5-diphenyltetrazolium bromide) dissolved in phosphate buffered solution in a concentration of 2mg/ml was added thereto and incubated again for 4 hours under the same condition as mentioned above. Thereafter, the supernatant was removed and 200µl of dimethylsulfoxide was added to measure the absorbance at 540nm.

Compound	effect to the blood vessel without endothelium (aortic rings)	relaxation to the blood vessel with endothelium (aortic rings)	vasodilation in the presence of methylene blue(MB) (aortic rings)	vasodilation in the presence of nitro-L-arginine(NLA) (aortic rings)	cytotoxicity [1]	IC50 (concentration to inhibit the cell growth by 50%) ([1]; dissolved in dimethylsulfoxide) [µg/mL]
ginsenoside Rg3	no effect	concentration-dependent relaxation	significantly inhibited	significantly inhibited	lower cytotoxicity than the solvent	26.7
CC(C)=CC/C=C(\C)[C@H]1CC[C@]2(C)[C@@H]1[C@H](O)C[C@@H]1[C@@]3(C)CC[C@H](O[C@@H]4O[C@H](CO)[C@@H](O)[C@H](O)[C@H]4O[C@@H]4O[C@H](CO)[C@@H](O)[C@H](O)[C@H]4O)C(C)(C)[C@@H]3CC[C@]12C [ginsenoside Rg5]	no effect	concentration-dependent relaxation	significantly inhibited	significantly inhibited	no cytotoxicity	

Reference: patent EP0873131B1, “PROCESSES FOR PREPARATION OF RG3 AND RG5 GINSENOSIDES” (Cheil Je Dang Co., priority 1995, dated 1997)
